Entries after “also recorded” stand apart in the source; their conditions may differ. No end group written: not given here. *: point of attachment. Stearoyl = CCCCCCCCCCCCCCCCCC(=O)*
Tests used:
ob/ob mice [1] = test: Intraperitoneal glucose tolerance test (IPGTT) in ob/ob mice after 15 days of treatment; format: in vivo, mouse; conditions: 3 mg/kg subcutaneously twice daily for 15 days, overnight fasted, glucose 1 g/kg i.p., vs vehicle
Procedure: Data shown are blood glucose levels (Mean±SEM) 45 min after intraperitoneal glucose tolerance test (IPGTT). (n=5 in each group; ***: p value <0.001).
After being acclimatized 7 days to the laboratory conditions, nine-week-old male B6. V-Lepob/J. mice (Charles River) were subcutaneously administered with vehicle (NaCl 0.9%) or with a peptide as set forth in SEQ ID NO: 73 (C18:0-HLGLEEPKK) at 3 mg/kg (n=5 animals for each group) twice daily for 15 days. On day 15, fasted (overnight) mice were injected intraperitoneally with glucose at 1 g/kg. Plasma blood glucose (expressed as mmol/L) was recorded at 45 minutes post glucose injection.

ob/ob mice [2] = test: Glucose telemetry and IPGTT in glucose-telemetered ob/ob mice, 28 days of treatment; format: in vivo, mouse; conditions: for glucose intolerance (3-hour IPGTT profile): glucose telemetered ob/ob mice, 1 and 3 mg/kg s.c. twice daily, 28 days, glucose 1 g/kg i.p., vs vehicle; for 16-hour mean blood glucose levels: day 27, normal fed conditions, vs baseline (Day -1) and vehicle
Procedure: FIG. 2A: 3-hour intraperitoneal glucose tolerance test profiles after 28 days of acylated HBD1 (3-11) fragment treatment. (n=5-8 in each group; p value <0.0001 at both doses vs VHL), Two-way ANOVA with multiple comparison, ****p<0.0001; FIG. 2B: fasting blood glucose levels (average value within 10 min prior to IPGTT) after 28 days of acylated HBD1 (3-11) fragment treatment. (n=5-8 in each group; p value <0.005 at the 3 mg/kg dose vs VHL), Unpaired two-tailed t-test vs VHL, ***p<0.005; FIG. 2C: Areas under the curve of the 3-hour intraperitoneal glucose tolerance test profiles after 28 days of acylated HBD1 (3-11) fragment treatment. (n=5-8 in each group), Unpaired two-tailed t-test vs VHL,*p<0.05, ****p<0.0001.
FIG. 3A: 16-hour mean blood glucose levels before (Day −1) and after 27 days of acylated HBD1 (3-11) fragment treatment. (n=5-8 in each group; **p value <0.001 at the 3 mg/kg dose vs VHL); FIG. 3B: Change from baseline in 16-hour mean blood glucose level after 27 days of acylated HBD1 (3-11) fragment treatment. (n=5-8 in each group; **p value <0.01 at the 3 mg/kg dose vs VHL).
To further assess the effects of HBD1 peptides on glucose and insulin metabolisms, basal blood glucose and glucose response to an intraperitoneal glucose tolerance test (IPGTT) were assessed in glucose-telemetered obese ob/ob mice after twice daily administration of HBD peptides for 28 consecutive days. Implantation of glucose telemetry device (HD-XG, Data Science International) was carried out according to known protocols.
A dose of HBD peptide fragment of SEQ ID NO: 73 (C18:0-HLGLEEPKK) was administered twice daily at 8-hour±1 hour interval between the two daily administrations. 24 V-Lepob/J (Ob/Ob) male mice (The Jackson Laboratory, Farmington, Conn. USA) were administered subcutaneously with vehicle (NaCl 0.9%) (Control group) or with the peptide at 1 and 3 mg/kg (Test groups) (n=5-8 animals for each group) twice daily for 28 days. The first day of dosing was designated as Day 1. Bolus injection was carried out using a sterile syringe and the needle was introduced subcutaneously, 2 to 4 injection sites were used in rotation. The hair of the animals on the injection area was clipped prior to the first injection and then as necessary during the treatment period. The volume administered was 5 mL/kg/administration. Individual dose volumes were calculated using the latest body weight. On day 27, 16-hour mean blood glucose levels were assessed in normal fed conditions. On day 28, fasted (4 hours) mice were injected intraperitoneally with glucose at 1 g/kg. Plasma blood glucose profile (expressed as mg/dL) was recorded every minute up to 3-hour post glucose injection.
Intraperitoneal glucose tolerance test (IPGTT)—On the morning of the IGPTT day (day 28), 2-hour fasted animals were treated with vehicle or with the HBD fragment. Glucose solution was administered 2 hours±15 minutes post-dosing (vehicle or a peptide as set forth in SEQ ID NO: 73 (C18:0-HLGLEEPKK). Blood glucose was monitored from 10 minutes before (fasting condition) to 3-hour post-glucose challenge. Food was re-introduced 4 hours post-glucose challenge. The second treatment of the day (the HBD fragment or vehicle) was performed 2 hours after food re-introduction.

[3] = test system: C2C12 mouse skeletal muscle myotubes; test: 3H-2-deoxyglucose uptake by fully differentiated C2C12 myotubes; format: cell-based
Procedure: In particular: HBD1 SEQ ID NO: 73 (C18:0-HLGLEEPKK) at 0.8 μM, 1.5 μM, and 2.3 μM; or 1.5 μM SEQ ID NO: 73 (C18:0-HLGLEEPKK) for 2, 4, and 16 hours prior to testing glucose uptake.
The studies were performed using cultured, fully differentiated C2C12 mouse skeletal muscle myotubes. The cells were prepared by growing C2C12 cells to confluent density in DMEM with 25 mM glucose and 10% fetal bovine serum in 24 well plates. At this time, the medium was changed to differentiation medium (DMEM with 25 mM glucose and 2% horse serum) for 6 days with medium changed every third day. The various treatments were diluted in serum-free medium and, after washing the cells with serum-free medium, were added to the cells and incubated for 2 hours or alternative times, depending on the treatment. At the end of incubation period, the media was removed and 1.0 ml of glucose-free Krebs ringer bicarbonate buffer (pH 7.4), containing the same treatments, was added and incubation continued for 10 minutes. At the end of the 10 min incubation period, ^3H-2-deoxyglucose ([…]) (specific activity=8 Ci/mmole) was added directly to all wells, and the incubation continued for an additional […]. The wells were then rinsed three times with ice cold phosphate buffered saline, the cells were extracted with 0.5 N NaOH, and the ^3H-2-deoxyglucose content of the cell lysate quantitated by scintillation counting.

[4] = listed as acylated HBD1 (3-11) fragment

## C18:0-HLGLEEPKK (Stearoyl-HLGLEEPKK) [SEQ ID NO: 73]
ob/ob mice [1]
  blood glucose levels 45 min after intraperitoneal glucose tolerance test (IPGTT): reduced the plasma glucose levels
ob/ob mice [1]; [4]
  blood glucose levels 45 min after intraperitoneal glucose tolerance test (IPGTT): improves glucose intolerance
ob/ob mice [2]
  glucose intolerance (3-hour IPGTT profile): improved glucose intolerance in a dose-dependent manner
ob/ob mice [2]; [4]
  glucose intolerance (3-hour IPGTT profile): improves glucose intolerance
ob/ob mice [2]; ob/ob mice, 3 mg/kg twice daily, 4 weeks
  effect on fasting glucose levels and glucose excursion following IPGTT at the high dose: marked effect
ob/ob mice [2]; ob/ob mice, after 4 weeks (28 days), 1 and 3 mg/kg twice daily
  glucose excursion following IPGTT: decreased
ob/ob mice [2]; ob/ob mice, after 4 weeks (28 days), average within 10 min prior to IPGTT, 1 and 3 mg/kg twice daily
  fasting glucose levels: decreased fasting glucose levels
ob/ob mice [2]; ob/ob mice
  16-hour mean blood glucose levels: markedly decrease 16-hour average blood glucose levels
ob/ob mice [2]; ob/ob mice, listed as acylated HBD1 (3-11) fragment
  16-hour mean blood glucose levels: improves glucose intolerance
[3]; 0.8 μM, 1.5 μM and 2.3 μM, vs vehicle-treated controls
  glucose uptake by C2C12 myotubes, dose dependence (FIG. 5A): stimulated increased glucose uptake as compared with vehicle-treated controls in both a dose- and time-dependent manner
[3]; 1.5 μM for 2, 4 and 16 hours
  glucose uptake by C2C12 myotubes, time dependence (FIG. 5B): time-dependent manner
[3]; 1.5 μM plus insulin
  glucose uptake by C2C12 myotubes with insulin, separate experiment (FIG. 8): act additively with insulin; also recorded: in an additive manner with insulin
[3]; 1.5 μM, alone
  glucose uptake by C2C12 myotubes, separate experiment (FIG. 8): increased glucose uptake
[3]; peptide plus insulin
  glucose uptake by C2C12 myotubes in combination with insulin (FIG. 5C): additive increase in glucose uptake
